From US3940382A, “1,2'-Di-N-substituted kanamycin B compounds” (Zaidan Hojin Biseibutsu Kagaku Kenkyu Kai, priority 1973, dated 1976)
In brackets after ≈: the same amount, converted by molar mass. Like-named read-outs stand apart in the source and are kept apart here.

Columns and labels:
Bacillus anthracis = assay: microbe, parasite or virus in culture; format: cell-based; conditions: 18 h, read-out: Minimum Inhibitory Concentrations
[1] = test system: Corynebacterium bovis 1810; assay: MIC, serial dilution on nutrient agar; format: cell-based; conditions: Corynebacterium bovis, 1810, 18 h, read-out: Minimum Inhibitory Concentrations
[2] = test system: Salmonella enteritidis 1891; assay: MIC, serial dilution on nutrient agar; format: cell-based; conditions: Salmonella enterica, ENTERITIDIS, 18 h, read-out: Minimum Inhibitory Concentrations
[3] = test system: Mycobacterium smegmatis ATCC 607; assay: MIC, serial dilution on nutrient agar; format: cell-based; conditions: Mycolicibacterium smegmatis, read-out: Minimum Inhibitory Concentrations
[4] = test system: Shigella dysenteriae JS 11910; assay: MIC, serial dilution on nutrient agar; format: cell-based; conditions: JS11910, 18 h, read-out: Minimum Inhibitory Concentrations
[5] = test system: Pseudomonas aeruginosa GN315; assay: MIC, serial dilution on nutrient agar; format: cell-based; conditions: read-out: Minimum Inhibitory Concentrations
[6] = test system: Escherichia coli K-12 ML 1410 R81; assay: MIC, serial dilution on nutrient agar; format: cell-based; conditions: 18 h, read-out: Minimum Inhibitory Concentrations
[7] = test system: Bacillus subtilis PCI 219; assay: MIC, serial dilution on nutrient agar; format: cell-based; conditions: read-out: Minimum Inhibitory Concentrations
[8] = test system: Bacillus cereus ATCC 10702; assay: MIC, serial dilution on nutrient agar; format: cell-based; conditions: Bacillus cereus, ATCC10702, 18 h, read-out: Minimum Inhibitory Concentrations
[9] = test system: Staphylococcus aureus Smith; assay: MIC, serial dilution on nutrient agar; format: cell-based; conditions: read-out: Minimum Inhibitory Concentrations
[10] = test system: Escherichia coli LA290 R56; assay: MIC, serial dilution on nutrient agar; format: cell-based; conditions: LA290R56, 18 h, read-out: Minimum Inhibitory Concentrations
Escherichia coli W677 = assay: MIC, serial dilution on nutrient agar; format: cell-based; conditions: read-out: Minimum Inhibitory Concentrations
[11] = test system: Escherichia coli JR66/W677; assay: MIC, serial dilution on nutrient agar; format: cell-based; conditions: Escherichia coli, JR66/W677, 18 h, read-out: Minimum Inhibitory Concentrations
[12] = test system: Klebsiella pneumoniae PCI 602; assay: MIC, serial dilution on nutrient agar; format: cell-based; conditions: Klebsiella pneumoniae, PCI602, 18 h, read-out: Minimum Inhibitory Concentrations
Salmonella typhosa T-63 = assay: MIC, serial dilution on nutrient agar; format: cell-based; conditions: Salmonella enterica, 18 h, read-out: Minimum Inhibitory Concentrations
Escherichia coli K-12 = assay: MIC, serial dilution on nutrient agar; format: cell-based; conditions: Escherichia coli, K12, 18 h, read-out: Minimum Inhibitory Concentrations
[13] = test system: Escherichia coli LA290 R55; assay: MIC, serial dilution on nutrient agar; format: cell-based; conditions: LA290R55, 18 h, read-out: Minimum Inhibitory Concentrations
[14] = test system: Pseudomonas aeruginosa A3; assay: MIC, serial dilution on nutrient agar; format: cell-based; conditions: Pseudomonas aeruginosa, A3, 18 h, read-out: Minimum Inhibitory Concentrations
[15] = test system: Escherichia coli K-12 ML 1629; assay: MIC, serial dilution on nutrient agar; format: cell-based; conditions: Escherichia coli, K12ML1629, 18 h, read-out: Minimum Inhibitory Concentrations
Proteus vulgaris OX 19 = assay: MIC, serial dilution on nutrient agar; format: cell-based; conditions: Proteus vulgaris, OX19, 18 h, read-out: Minimum Inhibitory Concentrations
Escherichia coli NIHJ = assay: MIC, serial dilution on nutrient agar; format: cell-based; conditions: Escherichia coli, 18 h, read-out: Minimum Inhibitory Concentrations
[16] = test system: Bacillus subtilis NRRL B-558; assay: MIC, serial dilution on nutrient agar; format: cell-based; conditions: read-out: Minimum Inhibitory Concentrations
[17] = test system: Staphylococcus aureus FDA 209P; assay: MIC, serial dilution on nutrient agar; format: cell-based; conditions: Staphylococcus aureus, FDA209P, 18 h, read-out: Minimum Inhibitory Concentrations
[18] = test system: Pseudomonas aeruginosa No.12; assay: MIC, serial dilution on nutrient agar; format: cell-based; conditions: read-out: Minimum Inhibitory Concentrations
[19] = test system: Pseudomonas aeruginosa TI-13; assay: MIC, serial dilution on nutrient agar; format: cell-based; conditions: read-out: Minimum Inhibitory Concentrations
[20] = test system: Klebsiella pneumoniae 22 -3038; assay: MIC, serial dilution on nutrient agar; format: cell-based; conditions: Klebsiella pneumoniae, 223038, 18 h, read-out: Minimum Inhibitory Concentrations
Sarcina lutea PCI 1001 = assay: MIC, serial dilution on nutrient agar; format: cell-based; conditions: Micrococcus luteus, PCI1001, 18 h, read-out: Minimum Inhibitory Concentrations
[21] = test system: Staphylococcus aureus Terejima; assay: MIC, serial dilution on nutrient agar; format: cell-based; conditions: read-out: Minimum Inhibitory Concentrations
[22] = test system: Escherichia coli K-12 ML 1410; assay: MIC, serial dilution on nutrient agar; format: cell-based; conditions: Escherichia coli, K12ML1410, 18 h, read-out: Minimum Inhibitory Concentrations
Shigella sonnei JS 11746 = assay: MIC, serial dilution on nutrient agar; format: cell-based; conditions: JS11746, 37°C, 18 hours, read-out: Minimum Inhibitory Concentrations
Procedure: (§1) The minimum inhibitory concentrations (mcg/ml) of 1,2'-di-N-[(S)-4-amino-2-hydroxybutyryl]-kanamycin B (abbreviated as 1,2'-AHB-KMB), 1,2'-di-N-[(S)-4-amino-2-hydroxybutyryl]-3',4'-dideoxykanamycin B (abbreviated as 1,2'-AHB-DKB), 1,2'-di-N-DL-isoseryl-3',4'-dideoxykanamycin B (abbreviated as 1,2'-IS-DKB) and 1,2'-di-N-DL-isoseryl-kanamycin B (abbreviated as 1,2'-IS-KMB) against various microorganisms were determined according to serial dilution method using nutrient agar medium at 37°C, the estimation being effected after 18 hours incubation. For comparison, the minimum inhibitory concentrations of kanamycin B (abbreviated as KMB) and 3',4'-dideoxykanamycin B (abbreviated as DKB) were also determined in the same manner as mentioned above.

[23] = test system: Shigella flexneri 4b JS 11811; assay: MIC, serial dilution on nutrient agar; format: cell-based; conditions: 4BJS11811, 37°C, 18 hours, read-out: Minimum Inhibitory Concentrations
Procedure: as §1

[24] = test system: Escherichia coli K-12 ML 1630; assay: MIC, serial dilution on nutrient agar; format: cell-based; conditions: K12ML1630, 37°C, 18 hours, read-out: Minimum Inhibitory Concentrations
Procedure: as §1

[25] = test system: Escherichia coli LA290 R64; assay: MIC, serial dilution on nutrient agar; format: cell-based; conditions: LA290R64, 18 h, read-out: Minimum Inhibitory Concentrations
[26] = test system: Pseudomonas aeruginosa 99; assay: MIC, serial dilution on nutrient agar; format: cell-based; conditions: read-out: Minimum Inhibitory Concentrations
drug-resistant bacteria = conditions: cited from earlier work
[27] = test system: gram-negative and gram-positive bacteria sensitive to the kanamycins; conditions: cited from earlier work
[28] = test system: kanamycin-resistant strains; conditions: strains phosphorylating the 3'-hydroxyl group of kanamycins; cited from earlier work
[29] = test system: Escherichia coli JR66/W677; conditions: strain adenylylating the 2"-hydroxyl group; cited from earlier work

Compound	MIC (Bacillus anthracis)	MIC [1]	MIC [2]	MIC [4]	MIC [6]	MIC [8]	MIC [10]	MIC [11]	MIC [12]	MIC (Salmonella typhosa T-63)	MIC (Escherichia coli K-12)	MIC [13]	MIC [14]	MIC [15]	MIC (Proteus vulgaris OX 19)	MIC (Escherichia coli NIHJ)	MIC [17]	MIC [20]	antibacterial activity against the drug-resistant bacteria (drug-resistant bacteria)	effectiveness against bacteria sensitive to the kanamycins [27]	further results
NCC[C@H](O)C(=O)N[C@H]1[C@@H](O[C@H]2[C@H](O)[C@@H](O[C@H]3O[C@H](CO)[C@@H](O)[C@H](N)[C@H]3O)[C@H](NC(=O)[C@@H](O)CCN)C[C@@H]2N)O[C@H](CN)[C@@H](O)[C@@H]1O [1,2'-AHB-KMB, 1,2'-di-N-[(S)-4-amino-2-hydroxybutyryl]-kanamycin B]	0.39 µg/mL (≈ 0.569 µM)	3.13 µg/mL (≈ 4.56 µM)	3.13 µg/mL (≈ 4.56 µM)	12.5 µg/mL (≈ 18.2 µM)	6.25 µg/mL (≈ 9.11 µM)	12.5 µg/mL (≈ 18.2 µM)	1.56 µg/mL (≈ 2.27 µM)	6.25 µg/mL (≈ 9.11 µM)	3.13 µg/mL (≈ 4.56 µM)	3.13 µg/mL (≈ 4.56 µM)	3.13 µg/mL (≈ 4.56 µM)	3.13 µg/mL (≈ 4.56 µM)	12.5 µg/mL (≈ 18.2 µM)	3.13 µg/mL (≈ 4.56 µM)	3.13 µg/mL (≈ 4.56 µM)	6.25 µg/mL (≈ 9.11 µM)	6.25 µg/mL (≈ 9.11 µM)	3.13 µg/mL (≈ 4.56 µM)			MIC ([3]; ATCC607, Mycobacterium smegmatis ATCC 607, nutrient agar, 37°C, 18 hours): 0.78 µg/mL (≈ 1.14 µM); MIC ([5]; Pseudomonas aeruginosa GN315, nutrient agar, 37°C, 18 hours): > 100 µg/mL; MIC ([7]; PCI219, Bacillus subtilis PCI 219, nutrient agar, 37°C, 18 hours): < 0.2 µg/mL; MIC ([9]; Staphylococcus aureus Smith, nutrient agar, 37°C, 18 hours): 0.39 µg/mL (≈ 0.569 µM); MIC (Escherichia coli W677; Escherichia coli W677, nutrient agar, 37°C, 18 hours): 1.56 µg/mL (≈ 2.27 µM); MIC ([16]; NRRLB558, Bacillus subtilis NRRL B-558, nutrient agar, 37°C, 18 hours): 0.78 µg/mL (≈ 1.14 µM); MIC ([18]; Pseudomonas aeruginosa No.12, nutrient agar, 37°C, 18 hours): 25 µg/mL (≈ 36.5 µM); MIC ([19]; TI13, Pseudomonas aeruginosa TI-13, nutrient agar, 37°C, 18 hours): 25 µg/mL (≈ 36.5 µM); MIC (Sarcina lutea PCI 1001): 6.25 µg/mL (≈ 9.11 µM); MIC ([21]; Staphylococcus aureus Terejima, nutrient agar, 37°C, 18 hours): < 0.2 µg/mL; MIC [22]: 3.13 µg/mL (≈ 4.56 µM); MIC (Shigella sonnei JS 11746): 6.25 µg/mL (≈ 9.11 µM); MIC [23]: 12.5 µg/mL (≈ 18.2 µM); MIC [24]: 3.13 µg/mL (≈ 4.56 µM); MIC [25]: 1.56 µg/mL (≈ 2.27 µM); MIC ([26]; Pseudomonas aeruginosa 99, nutrient agar, 37°C, 18 hours): 50 µg/mL (≈ 72.9 µM)
NCC(O)C(=O)N[C@@H]1C[C@H](N)[C@@H](O[C@H]2O[C@H](CN)CC[C@H]2N)[C@H](O)[C@H]1O[C@H]1O[C@H](CO)[C@@H](O)[C@H](N)[C@H]1O (stereo partly shown) [1-N-isoseryl-3',4'-dideoxykanamycin B]																			effective	effective	
NCC(O)C(=O)N[C@@H]1C[C@H](N)[C@@H](O[C@H]2O[C@H](CN)[C@@H](O)[C@H](O)[C@H]2O)[C@H](O)[C@H]1O[C@H]1O[C@H](CO)[C@@H](O)[C@H](N)[C@H]1O (stereo partly shown) [1-N-isoserylkanamycin]																			effective	effective	
NCC(O)C(=O)N[C@@H]1C[C@H](N)[C@@H](O[C@H]2O[C@H](CN)[C@@H](O)[C@H](O)[C@H]2N)[C@H](O)[C@H]1O[C@H]1O[C@H](CO)[C@@H](O)[C@H](N)[C@H]1O (stereo partly shown) [1N-isoserylkanamycinB]																			effective	effective	
NC[C@H]1O[C@H](O[C@H]2[C@H](O)[C@@H](O[C@H]3O[C@H](CO)[C@@H](O)[C@H](N)[C@H]3O)[C@H](N)C[C@@H]2N)[C@H](O)C[C@@H]1O [3'-deoxykanamycin]																					effectiveness against kanamycin-resistant strains [28]: actually effective; activity against kanamycin-resistant strains such as Escherichia coli JR66/W677 [29]: practically inactive
NC[C@H]1O[C@H](O[C@H]2[C@H](O)[C@@H](O[C@H]3O[C@H](CO)[C@@H](O)[C@H](N)[C@H]3O)[C@H](N)C[C@@H]2N)[C@H](N)[C@@H](O)[C@@H]1O [KMB, kanamycin B]	< 0.2 µg/mL	1.56 µg/mL (≈ 3.23 µM)	1.56 µg/mL (≈ 3.23 µM)	3.13 µg/mL (≈ 6.47 µM)	> 100 µg/mL	0.78 µg/mL (≈ 1.61 µM)	3.13 µg/mL (≈ 6.47 µM)	> 100 µg/mL	0.78 µg/mL (≈ 1.61 µM)	0.2 µg/mL (≈ 0.414 µM)	0.78 µg/mL (≈ 1.61 µM)	12.5 µg/mL (≈ 25.9 µM)	50 µg/mL (≈ 103 µM)	> 100 µg/mL	0.78 µg/mL (≈ 1.61 µM)	0.78 µg/mL (≈ 1.61 µM)	< 0.2 µg/mL	> 100 µg/mL			MIC ([3]; ATCC607, 18 h): 0.78 µg/mL (≈ 1.61 µM); MIC ([5]; Pseudomonas aeruginosa, GN315, 18 h): > 100 µg/mL; MIC ([7]; Bacillus subtilis, PCI219, 18 h): < 0.2 µg/mL; MIC ([9]; Staphylococcus aureus, 18 h): 0.39 µg/mL (≈ 0.807 µM); MIC (Escherichia coli W677; Escherichia coli, W677, 18 h): 0.39 µg/mL (≈ 0.807 µM); MIC ([16]; Bacillus subtilis, NRRLB558, 18 h): < 0.2 µg/mL; MIC ([18]; Pseudomonas aeruginosa, NO.12, 18 h): 12.5 µg/mL (≈ 25.9 µM); MIC ([19]; Pseudomonas aeruginosa, TI13, 18 h): 100 µg/mL (≈ 207 µM); MIC (Sarcina lutea PCI 1001): 1.56 µg/mL (≈ 3.23 µM); MIC ([21]; Staphylococcus aureus, 18 h): < 0.2 µg/mL; MIC [22]: 0.78 µg/mL (≈ 1.61 µM); MIC (Shigella sonnei JS 11746): 1.56 µg/mL (≈ 3.23 µM); MIC [23]: 3.13 µg/mL (≈ 6.47 µM); MIC [24]: > 100 µg/mL; MIC [25]: 3.13 µg/mL (≈ 6.47 µM); MIC ([26]; Pseudomonas aeruginosa, 99, 18 h): > 100 µg/mL
